Measurements taken from ChEMBL document CHEMBL5715952 (Oncotarget, 2015).
Activity calls are given as the source filed them. The rule behind the calls is not given here.

Tests used:
Proteasome [1] = assay: Inhibition of proteasome in human RPMI-8226 cells assessed as reduction of cell growth incubated for 72 hrs by CellTiter 96 aqueous one solution cell proliferation assay; settings: RPMI-8226, 72 h
Proteasome [2] = assay: Inhibition of proteasome in bortezomib Resistant human RPMI-8226 cells assessed as reduction of cell growth incubated for 72 hrs by CellTiter 96 aqueous one solution cell proliferation assay; settings: Bortezomib-resistant RPMI-8226, 72 h
Proteasome [3] = assay: Inhibition of proteasome in Melphalan Resistant human RPMI-8226 cells assessed as reduction of cell growth incubated for 72 hrs by CellTiter 96 aqueous one solution cell proliferation assay; settings: Melphalan-resistant RPMI-8226 cell
Proteasome [4] = assay: Inhibition of proteasome in human ANBL-6 cells assessed as reduction of cell growth incubated for 72 hrs by CellTiter 96 aqueous one solution cell proliferation assay; settings: ANBL-6, 72 h
Proteasome [5] = assay: Inhibition of proteasome in human bortezomib-resistant ANBL6 cells assessed as reduction of cell growth incubated for 72 hrs by CellTiter 96 aqueous one solution cell proliferation assay
Proteasome [6] = assay: Inhibition of proteasome in human U-266 cells assessed as reduction of cell growth incubated for 72 hrs by CellTiter 96 aqueous one solution cell proliferation assay; settings: U-266, 72 h
ANBL-6 [7] = assay: Induction of apoptosis in wild-type human ANBL-6 cells assessed as viable at 20 nM incubated for 72 hrs by annexin V and 7-AAD staining by flow cytometry analysis (Rvb=59 %); type: functional
ANBL-6 [8] = assay: Induction of apoptosis in wild-type human ANBL-6 cells assessed as late apoptosis at 20 nM incubated for 72 hrs by annexin V and 7-AAD staining by flow cytometry analysis (Rvb=26 %); type: functional
ANBL-6 [9] = assay: Induction of apoptosis in wild-type human ANBL-6 cells assessed as early apoptosis at 20 nM incubated for 72 hrs by annexin V and 7-AAD staining by flow cytometry analysis (Rvb=14 %); type: functional
[10] = test system: Bortezomib-resistant ANBL6; assay: Induction of apoptosis in human bortezomib-resistant ANBL6 cells assessed as viable at 20 nM incubated for 72 hrs by annexin V and 7-AAD staining by flow cytometry analysis (Rvb=80 %); type: functional
[11] = test system: Bortezomib-resistant ANBL6; assay: Induction of apoptosis in human bortezomib-resistant ANBL6 cells assessed as late apoptosis at 20 nM incubated for 72 hrs by annexin V and 7-AAD staining by flow cytometry analysis (Rvb=5 %); type: functional
[12] = test system: Bortezomib-resistant ANBL6; assay: Induction of apoptosis in human bortezomib-resistant ANBL6 cells assessed as early apoptosis at 20 nM incubated for 72 hrs by annexin V and 7-AAD staining by flow cytometry analysis (Rvb=15 %); type: functional
[13] = target: T1, Bromodomain and extra-terminal motif (BET) (Homo sapiens) (UniProt P25440+O60885+Q58F21+Q15059); assay: Inhibition of BET in human ANBL-6 WT cells assessed as increase in protein NOXA expression level at 20 nM by immunoblot analysis; type: cell-based
[14] = target: T1, Bromodomain and extra-terminal motif (BET) (Homo sapiens); assay: Inhibition of BET in human ANBL-6 WT cells assessed as change in protein MYC expression level at 20 nM by immunoblot analysis; type: cell-based
[15] = target: T1, Bromodomain and extra-terminal motif (BET) (Homo sapiens); assay: Inhibition of BET in human bortezomib-resistant ANBL6 cells assessed as increase in protein NOXA expression level at 20 nM by immunoblot analysis; type: cell-based; settings: Bortezomib-resistant ANBL6 cell
[16] = target: T1, Bromodomain and extra-terminal motif (BET) (Homo sapiens); assay: Inhibition of BET in human bortezomib-resistant ANBL6 cells assessed as change in protein MYC expression level at 20 nM by immunoblot analysis; type: cell-based; settings: Bortezomib-resistant ANBL6 cell
Proteasome [17] = assay: Ratio of IC50 for inhibition of proteasome in human RPMI-8226 cells assessed as reduction of cell viability to IC50 for inhibition of proteasome in human RPMI-8226/BR resistant cells assessed as reduction of cell viability; settings: condition multiple myeloma
Proteasome [18] = assay: Ratio of IC50 for inhibition of proteasome in human ANBL6 cells assessed as reduction of cell viability to IC50 for inhibition of proteasome in human ANBL6/BR resistant cells assessed as reduction of cell viability; settings: condition multiple myeloma
RPMI-8226 = assay: Cytotoxicity against human RPMI-8226 cells assessed as reduction of cell growth incubated for 72 hrs by CellTiter 96 aqueous one solution cell proliferation assay; type: functional, cell-based; settings: RPMI-8226, 72 h
[19] = Ratio of IC50 for inhibition of FLT3/cKIT/FGFR1/VEGFR1/PDGFR/CSF1R in human RPMI-8226 cells assessed as reduction of cell viability to IC50 for inhibition of FLT3/cKIT/FGFR1/VEGFR1/PDGFR/CSF1R in human melphalan-resistant RPMI-8226 cells assessed as reduction of cell viability; settings: time 72 hrs; condition multiple myeloma
[20] = Ratio of IC50 for inhibition of FLT3/cKIT/FGFR1/VEGFR2/PDGFR/CSF1R in human RPMI-8226 cells assessed as reduction of cell viability to IC50 for inhibition of FLT3/cKIT/FGFR1/VEGFR2/PDGFR/CSF1R in human melphalan-resistant RPMI-8226 cells assessed as reduction of cell viability; settings: time 72 hrs; condition multiple myeloma
[21] = Ratio of IC50 for inhibition of FLT3/cKIT/FGFR1/VEGFR3/PDGFR/CSF1R in human RPMI-8226 cells assessed as reduction of cell viability to IC50 for inhibition of FLT3/cKIT/FGFR1/VEGFR3/PDGFR/CSF1R in human melphalan-resistant RPMI-8226 cells assessed as reduction of cell viability; settings: time 72 hrs; condition multiple myeloma
[22] = Ratio of IC50 for inhibition of FLT3/cKIT/FGFR3/VEGFR1/PDGFR/CSF1R in human RPMI-8226 cells assessed as reduction of cell viability to IC50 for inhibition of FLT3/cKIT/FGFR3/VEGFR1/PDGFR/CSF1R in human melphalan-resistant RPMI-8226 cells assessed as reduction of cell viability; settings: time 72 hrs; condition multiple myeloma
[23] = Ratio of IC50 for inhibition of FLT3/cKIT/FGFR3/VEGFR2/PDGFR/CSF1R in human RPMI-8226 cells assessed as reduction of cell viability to IC50 for inhibition of FLT3/cKIT/FGFR3/VEGFR2/PDGFR/CSF1R in human melphalan-resistant RPMI-8226 cells assessed as reduction of cell viability; settings: time 72 hrs; condition multiple myeloma
[24] = Ratio of IC50 for inhibition of FLT3/cKIT/FGFR3/VEGFR3/PDGFR/CSF1R in human RPMI-8226 cells assessed as reduction of cell viability to IC50 for inhibition of FLT3/cKIT/FGFR3/VEGFR3/PDGFR/CSF1R in human melphalan-resistant RPMI-8226 cells assessed as reduction of cell viability; settings: time 72 hrs; condition multiple myeloma
[25] = Ratio of IC50 for inhibition of FLT3/cKIT/FGFR1/VEGFR1/PDGFR/CSF1R in human RPMI-8226 cells assessed as reduction of cell viability to IC50 for inhibition of FLT3/cKIT/FGFR1/VEGFR1/PDGFR/CSF1R in human RPMI-8226/BR resistant cells assessed as reduction of cell viability; settings: condition multiple myeloma
[26] = Ratio of IC50 for inhibition of FLT3/cKIT/FGFR1/VEGFR2/PDGFR/CSF1R in human RPMI-8226 cells assessed as reduction of cell viability to IC50 for inhibition of FLT3/cKIT/FGFR1/VEGFR2/PDGFR/CSF1R in human RPMI-8226/BR resistant cells assessed as reduction of cell viability; settings: condition multiple myeloma
[27] = Ratio of IC50 for inhibition of FLT3/cKIT/FGFR1/VEGFR3/PDGFR/CSF1R in human RPMI-8226 cells assessed as reduction of cell viability to IC50 for inhibition of FLT3/cKIT/FGFR1/VEGFR3/PDGFR/CSF1R in human RPMI-8226/BR resistant cells assessed as reduction of cell viability; settings: condition multiple myeloma
[28] = Ratio of IC50 for inhibition of FLT3/cKIT/FGFR3/VEGFR1/PDGFR/CSF1R in human RPMI-8226 cells assessed as reduction of cell viability to IC50 for inhibition of FLT3/cKIT/FGFR3/VEGFR1/PDGFR/CSF1R in human RPMI-8226/BR resistant cells assessed as reduction of cell viability; settings: condition multiple myeloma
[29] = Ratio of IC50 for inhibition of FLT3/cKIT/FGFR3/VEGFR2/PDGFR/CSF1R in human RPMI-8226 cells assessed as reduction of cell viability to IC50 for inhibition of FLT3/cKIT/FGFR3/VEGFR2/PDGFR/CSF1R in human RPMI-8226/BR resistant cells assessed as reduction of cell viability; settings: condition multiple myeloma
[30] = Ratio of IC50 for inhibition of FLT3/cKIT/FGFR3/VEGFR3/PDGFR/CSF1R in human RPMI-8226 cells assessed as reduction of cell viability to IC50 for inhibition of FLT3/cKIT/FGFR3/VEGFR3/PDGFR/CSF1R in human RPMI-8226/BR resistant cells assessed as reduction of cell viability; settings: condition multiple myeloma
[31] = Ratio of IC50 for inhibition of FLT3/cKIT/FGFR1/VEGFR1/PDGFR/CSF1R in human ANBL6 cells assessed as reduction of cell viability to IC50 for inhibition of FLT3/cKIT/FGFR1/VEGFR1/PDGFR/CSF1R in human ANBL6/BR resistant cells assessed as reduction of cell viability; settings: condition multiple myeloma
[32] = Ratio of IC50 for inhibition of FLT3/cKIT/FGFR1/VEGFR2/PDGFR/CSF1R in human ANBL6 cells assessed as reduction of cell viability to IC50 for inhibition of FLT3/cKIT/FGFR1/VEGFR2/PDGFR/CSF1R in human ANBL6/BR resistant cells assessed as reduction of cell viability; settings: condition multiple myeloma
[33] = Ratio of IC50 for inhibition of FLT3/cKIT/FGFR1/VEGFR3/PDGFR/CSF1R in human ANBL6 cells assessed as reduction of cell viability to IC50 for inhibition of FLT3/cKIT/FGFR1/VEGFR3/PDGFR/CSF1R in human ANBL6/BR resistant cells assessed as reduction of cell viability; settings: condition multiple myeloma
[34] = Ratio of IC50 for inhibition of FLT3/cKIT/FGFR3/VEGFR1/PDGFR/CSF1R in human ANBL6 cells assessed as reduction of cell viability to IC50 for inhibition of FLT3/cKIT/FGFR3/VEGFR1/PDGFR/CSF1R in human ANBL6/BR resistant cells assessed as reduction of cell viability; settings: condition multiple myeloma
[35] = Ratio of IC50 for inhibition of FLT3/cKIT/FGFR3/VEGFR2/PDGFR/CSF1R in human ANBL6 cells assessed as reduction of cell viability to IC50 for inhibition of FLT3/cKIT/FGFR3/VEGFR2/PDGFR/CSF1R in human ANBL6/BR resistant cells assessed as reduction of cell viability; settings: condition multiple myeloma
[36] = Ratio of IC50 for inhibition of FLT3/cKIT/FGFR3/VEGFR3/PDGFR/CSF1R in human ANBL6 cells assessed as reduction of cell viability to IC50 for inhibition of FLT3/cKIT/FGFR3/VEGFR3/PDGFR/CSF1R in human ANBL6/BR resistant cells assessed as reduction of cell viability; settings: condition multiple myeloma
cells [37] = settings: Homo sapiens, Bortezomib-resistant RPMI-8226, 72 h
cells [38] = settings: Homo sapiens, Melphalan-resistant RPMI-8226 cell, 72 h
ANBL-6 [39] = assay: cells; settings: Homo sapiens, ANBL-6, 72 h
[40] = test system: Bortezomib-resistant ANBL6; assay: cells; settings: Homo sapiens, Bortezomib-resistant ANBL6, 72 h
U-266 = assay: cells; settings: Homo sapiens, U-266, 72 h

## CC(C)C[C@H](NC(=O)[C@H](Cc1ccccc1)NC(=O)c1cnccn1)B(O)O [BORTEZOMIB]
Proteasome [1]
  IC50: […]
Proteasome [2]
  IC50: […]
Proteasome [3]
  IC50: […]
Proteasome [4]
  IC50: […]
Proteasome [5]
  IC50: […]
Proteasome [6]
  IC50: […]
ANBL-6 [7]
  Activity: 7%
ANBL-6 [8]
  Activity: 22%
ANBL-6 [9]
  Activity: 71%
[10]
  Activity: 49%
[11]
  Activity: 6%
[12]
  Activity: 45%
[13]
  inhibition: Active
[14]
  inhibition: inactive
[15]
  inhibition: Active
[16]
  inhibition: inactive
Proteasome [17]
  Ratio IC50: […]
Proteasome [18]
  Ratio IC50: […]

## CN1CCN(c2ccc3nc(-c4c(N)c5c(F)cccc5[nH]c4=O)[nH]c3c2)CC1 [DOVITINIB]
RPMI-8226
  IC50: 2140 nM
[19]
  Ratio IC50: 2.6
[20]
  Ratio IC50: 2.6
[21]
  Ratio IC50: 2.6
[22]
  Ratio IC50: 2.6
[23]
  Ratio IC50: 2.6
[24]
  Ratio IC50: 2.6
[25]
  Ratio IC50: 0.38
[26]
  Ratio IC50: 0.38
[27]
  Ratio IC50: 0.38
[28]
  Ratio IC50: 0.38
[29]
  Ratio IC50: 0.38
[30]
  Ratio IC50: 0.38
[31]
  Ratio IC50: 1.51
[32]
  Ratio IC50: 1.51
[33]
  Ratio IC50: 1.51
[34]
  Ratio IC50: 1.51
[35]
  Ratio IC50: 1.51
[36]
  Ratio IC50: 1.51
Cells [37]
  IC50: 5620 nM
Cells [38]
  IC50: 2950 nM
ANBL-6 [39]
  IC50: 10000 nM
[40]
  IC50: 6610 nM
U-266
  IC50: 6760 nM
